From patent US7083933B1, “Methods for identification of modulators of OSGPR116 activity” (Prosidion Limited, priority 2003, dated 2006)

What was measured:
OSGPR116 [1] = molecular target: T1, OSGPR116 (Homo sapiens, UniProt Q8TDV5); experiment: Cre-SEAP assay in HEK-293-Galpha16 cells transfected with OSGPR116 or empty vector; type: cell-based; set-up: expressed in transfected cells; host or cells: HEK-293-Galpha16 cells stably expressing cre-SEAP, transient transfection with lipofectamine; conditions: OSGPR116 and empty vector transfected cells, 7h, FIG. 12
T1 sequence (Q8TDV5 1-335): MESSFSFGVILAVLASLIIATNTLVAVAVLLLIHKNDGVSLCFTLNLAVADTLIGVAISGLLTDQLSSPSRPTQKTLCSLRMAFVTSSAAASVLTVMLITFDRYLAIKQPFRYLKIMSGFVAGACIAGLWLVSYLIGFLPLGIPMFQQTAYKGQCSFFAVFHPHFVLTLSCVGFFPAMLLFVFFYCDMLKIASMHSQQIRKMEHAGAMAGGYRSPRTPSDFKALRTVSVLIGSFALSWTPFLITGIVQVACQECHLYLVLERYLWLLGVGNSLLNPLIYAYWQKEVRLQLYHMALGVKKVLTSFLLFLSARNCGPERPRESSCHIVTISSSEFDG
Description: HEK-293—Galpha16 cells stably expressing the cre-SEAP (secreted alkaline phosphatase) reporter construct, and transiently transfected with either the OSGPR116 vector or empty vector control, were grown to between ˜0.5×10^6 and 1×10^7 cells/dish and seeded at 4×10^4 cells/well on poly-D-lysine coated clear-bottom 96-well tissue culture plates. The cells were left to adhere to the plates in media for 24h at 37° C. The media was aspirated and the cells arrested by serum starvation for a further 24h in 200 ul of colorless DMEM.
After serum arrest, the starvation media was aspirated and 90 ul fresh colorless DMEM containing 0.1% BSA was added. 10 ul of 10× compound (or DMSO/H20 control) was added and the plates incubated at 37° C. for 7h. Conditioned media (12.5 ul) was then transferred to a 96 well white flat-bottom plate. Next, 37.5 μl of 1× Tropix Dilution Buffer was added to the transferred culture media. 50 μl of Tropix Assay Buffer was also added. The plate was then incubated at room temperature for 5 minutes. Finally, 50 μl Tropix Reaction Buffer Diluent containing a 1:20 dilution of the CSPD Chemiluminescent Substrate was added. The plate was incubated at room temperature for 60 minutes and luminescence measured.

OSGPR116 [2] = molecular target: T1, OSGPR116; experiment: Yeast cell-based Fus1p-LacZ reporter assay, human OSGPR116; set-up: expressed in transfected cells; host or cells: engineered yeast (GPA1 and Ste3 deleted, G-alpha chimera, Fus1p-LacZ reporters); conditions: human isoform, FIG. 9a; Galpha-q5 yeast, 4h incubation
From the text: (§1) The yeast cell-based reporter assays have previously been described in the literature (e.g. see Miret J. J., et. al. (2002) J. Biol. Chem. 277:6881–6887; Campbell R. M., et. al. (1999) Bioorg Med. Chem. Lett. 9:2413–2418; King K., et. al. (1990) Science. 250:121–123); WO 99/14344; WO 00/12704; and U.S. Pat. No. 6,100,042). Briefly, yeast cells have been engineered such that the endogenous yeast G-alpha (GPA1) has been deleted and replaced with G-protein chimeras constructed using multiple techniques. Additionally the endogenous yeast alpha-cell GPCR, Ste3 has been deleted to allow for a […] expression of a mammalian GPCR of choice. In the yeast, elements of the pheromone signaling transduction pathway, which are conserved in eukaryotic cells (for example, the mitogen-activated protein kinase pathway), drive the expression of Fus1. By placing β-galactosidase (LacZ) under the control of the Fus1 promoter (Fus1p), a system has been developed whereby receptor activation leads to an enzymatic read-out. Different yeast strains (e.g. FIG. 10) denote the presence of different G-alpha chimeras (see “yeast reporter assays” in Results section below for definitions).
(§2) Yeast cells are transformed by an adaptation of the Lithium acetate method described by Agatep et.al. (Agatep, R., et. al. (1998) Transformation of Saccharomyces cerevisiae by the lithium acetate/single-stranded carrier DNA/polyethylene glycol (LiAc/ss-DNA/PEG) protocol. Technical Tips Online, Trends Journals, Elsevier). Briefly, yeast cells are grown overnight on yeast tryptone plates (YT). Carrier single-stranded DNA (10 μg), 2 μg of each of two Fus1p-LacZ reporter plasmids (one with URA selection marker and one with TRP), 2 μg of OSGPR116 in yeast expression vector (2μ origin of replication) and a lithium acetate/polyethylene glycol/TE buffer is pipetted into an Epindorf tube. The yeast expression plasmid containing the receptor/no receptor control has a LEU marker. Yeast cells are inoculated into this mixture and the reaction proceeds at 30° C. for 60 minutes. The yeast cells are then heat-shocked at 42° C. for 15 minutes. The cells are then washed and spread on selection plates. The selection plates are synthetic defined yeast media minus LEU, URA and TRP (SD-LUT). After incubating at 30° C. for 2–3 days, colonies that grow on the selection plates are then tested in the LacZ assay.
(§3) In order to perform fluorometric enzyme assays for β-galactosidase, yeast cells were grown overnight in liquid SD-LUT media to an unsaturated concentration (i.e. the cells are still dividing and have not yet reached stationary phase). They are diluted in fresh media to an optimal assay concentration and 90 μL of yeast cells were added to 96-well black polystyrene plates (Costar). Compounds, dissolved in ethanol and diluted in a 1% BSA solution to 10× concentration, were added to the plates and the yeast are placed at 30° C. for 4h. After 4h, the substrate for the β-galactosidase is added to each well. The substrate may yield a fluorescent or calorimetric read-out upon the activity of the β-galactosidase. In these experiments, Fluorescein di (β-D-galactopyranoside) was used (FDG), a substrate for the enzyme that releases fluorescein, allowing a fluorometric read-out. 20 μL of 500 uM FDG was used. After incubation of the cells with the substrate for 30–60 mins, 20 μL of 1M sodium carbonate is added to terminate the reaction and enhance the fluorescent signal. The plates were then read in a fluorometer at 485/535 nm. As an alternate read-out system, the yeast are also engineered with a Fus1p-HIS gene which means that activation of the receptor can also be measured through the growth of the yeast in a […] deficient media.

OSGPR116 [3] = molecular target: T1, OSGPR116; set-up: expressed in transfected cells; host or cells: yeast strains 13397, 13393, 15070, 18043, 20202, 10151 with different G-alpha chimeras; conditions: as described in earlier U.S. patents; cited from earlier work
[4] = tested on: vector transformed yeast cells; experiment: Yeast reporter assay, vector transformed (no receptor) control yeast; type: cell-based; conditions: yeast without OSGPR116 expression, FIGS. 9a, 9b
From the text: as §1, §2, §3

[5] = molecular target: T2, mouse homolog of OSGPR116 (Mus musculus, UniProt Q7TQP3); experiment: Yeast cell-based Fus1p-LacZ reporter assay, mouse OSGPR116; conditions: mouse isoform, FIG. 9b; Galpha-q5 yeast, 4h incubation
T2 construct: expressed in transfected cells; host or cells: engineered yeast (GPA1 and Ste3 deleted, G-alpha chimera, Fus1p-LacZ reporters)
T2 sequence (Q7TQP3 1-335): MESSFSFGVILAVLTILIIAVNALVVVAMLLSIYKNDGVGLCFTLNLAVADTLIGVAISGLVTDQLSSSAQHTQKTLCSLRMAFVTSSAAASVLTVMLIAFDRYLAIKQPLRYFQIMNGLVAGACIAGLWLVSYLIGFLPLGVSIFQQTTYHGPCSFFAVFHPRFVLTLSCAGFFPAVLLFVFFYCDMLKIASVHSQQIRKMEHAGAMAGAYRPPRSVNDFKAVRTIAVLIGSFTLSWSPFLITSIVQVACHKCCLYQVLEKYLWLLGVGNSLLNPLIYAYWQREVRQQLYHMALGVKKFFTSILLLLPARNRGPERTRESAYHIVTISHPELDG
From the text: as §1, §2, §3

| SMILES | effect on fluorescence (β-galactosidase activity) in yeast transformed with OSGPR116 receptor (OSGPR116 [2]) | increase in fluorescence in vector transformed cells [4] | effect on fluorescence (β-galactosidase activity) in yeast transformed with OSGPR116 receptor [5] | also measured |
| --- | --- | --- | --- | --- |
| Nc1ncnc2c1ncn2[C@@H]1O[C@H](COP(=O)(O)OP(=O)(O)OP(=O)(O)O)[C@@H](O)[C@H]1O [ATP] | – | – | – | luminescence (cre-SEAP, cAMP response element driven secreted alkaline phosphatase) (OSGPR116 [1]): no effect |
| CC1=C(/C=C/C(C)=C/C=C/C(C)=C/C(=O)O)C(C)(C)CCC1 [ATRA, all-trans-retinoic acid] | no effect | – | – | production of cyclic AMP in host cells expressing recombinant receptor (OSGPR116 [3]): stimulate the production of cyclic AMP; luminescence (cre-SEAP, cAMP response element driven secreted alkaline phosphatase) (OSGPR116 [1]): no effect; luminescence (cre-SEAP, cAMP response element driven secreted alkaline phosphatase) (OSGPR116 [1]; listed as all-trans retinoic acid (ATRA)): Lack of effect |
| CCCCCCC(C)(C)c1ccc([C@@H]2C[C@H](O)CC[C@H]2CCCO)c(O)c1 [CP55940] | no effect | – | – | – |
| CCCC(C)(C)c1ccc2c(c1)OC(C)(C)[C@@H]1CC=C(C)C[C@@H]21 [JWH-133] | no effect | – | – | – |
| CCNC(=O)[C@H]1O[C@@H](n2cnc3c(N)ncnc32)[C@H](O)[C@@H]1O [NECA] | – | – | – | luminescence (cre-SEAP, cAMP response element driven secreted alkaline phosphatase) (OSGPR116 [1]): clear increase |
| Cc1c(C(=O)c2cccc3ccccc23)c2cccc3c2n1[C@H](CN1CCOCC1)CO3 [WIN55212-2] | no effect | – | – | – |
| CCCCC/C=C\C/C=C\C/C=C\C/C=C\CCCC(=O)NCCO [anandamide] | increase in fluorescence | not | increase in fluorescence | – |
| CC/C=C\C/C=C\C/C=C\C/C=C\C/C=C\C/C=C\CCC(=O)NCCO [docosahexaenoic acid ethanolamide] | no effect | – | – | – |
| CC/C=C\C/C=C\C/C=C\CCCCCCCC(=O)NCCO [linolenoyl ethanolamide] | increase in fluorescence | not | increase in fluorescence | – |
| CCCCC/C=C\C/C=C\C/C=C\C/C=C\CCCC(=O)N[C@H](C)CO [methanandamide] | no effect | – | – | – |
| CCCCCCCC/C=C\CCCCCCCC(N)=O [oleamide] | increase in fluorescence | not | increase in fluorescence | – |
| CCCCCCCCCCCCCCCC(=O)NCCO [palmitoyl ethanolamide] | increase in fluorescence | not | increase in fluorescence | – |
| CCCCCCCCCCCCCCCCCC(=O)NCCO [stearoyl ethanolamide] | increase in fluorescence | not | increase in fluorescence | – |
